Results from ChEMBL document CHEMBL5625223 (Eur J Med Chem, 2023).

Legend:
[1] = target: T1, 5-hydroxytryptamine receptor 2C (Homo sapiens, UniProt P28335); assay: Binding affinity to 5HT2C receptor (unknown origin) assessed as inhibition constant
T1 sequence (P28335 whole entry): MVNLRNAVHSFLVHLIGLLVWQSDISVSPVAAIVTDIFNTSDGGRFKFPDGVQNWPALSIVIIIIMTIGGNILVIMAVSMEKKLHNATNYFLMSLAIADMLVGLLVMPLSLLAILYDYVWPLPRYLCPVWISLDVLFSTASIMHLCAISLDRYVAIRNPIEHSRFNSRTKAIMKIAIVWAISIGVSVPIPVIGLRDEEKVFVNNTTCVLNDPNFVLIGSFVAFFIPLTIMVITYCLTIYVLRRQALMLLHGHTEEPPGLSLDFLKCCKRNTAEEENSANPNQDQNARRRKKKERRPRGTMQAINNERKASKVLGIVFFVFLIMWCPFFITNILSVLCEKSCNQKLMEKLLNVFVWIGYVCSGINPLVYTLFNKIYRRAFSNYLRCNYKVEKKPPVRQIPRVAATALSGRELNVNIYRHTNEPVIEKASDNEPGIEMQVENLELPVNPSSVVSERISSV

[2] = target: T2, 5-hydroxytryptamine receptor 2A (Homo sapiens, UniProt P28223); assay: Binding affinity to 5HT2A receptor (unknown origin) at 10 uM relative to control
T2 sequence (P28223 whole entry): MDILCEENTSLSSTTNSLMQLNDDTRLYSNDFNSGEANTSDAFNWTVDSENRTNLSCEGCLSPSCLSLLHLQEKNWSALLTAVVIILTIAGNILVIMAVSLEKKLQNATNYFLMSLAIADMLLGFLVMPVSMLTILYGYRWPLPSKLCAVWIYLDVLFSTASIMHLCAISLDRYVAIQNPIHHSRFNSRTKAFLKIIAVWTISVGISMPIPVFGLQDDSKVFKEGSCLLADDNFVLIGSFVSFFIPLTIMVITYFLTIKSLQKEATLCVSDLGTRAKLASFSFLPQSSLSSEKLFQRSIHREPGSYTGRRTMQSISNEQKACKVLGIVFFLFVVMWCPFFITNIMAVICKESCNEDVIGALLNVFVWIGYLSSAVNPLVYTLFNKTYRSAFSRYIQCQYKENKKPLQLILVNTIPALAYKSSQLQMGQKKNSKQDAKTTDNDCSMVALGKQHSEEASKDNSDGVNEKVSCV

Adenosine receptor A3 = target: T3, Adenosine receptor A3 (Homo sapiens, UniProt P0DMS8); assay: Displacement of […] from human A3AR expressed in HEK cells assessed as inhibition constant; type: cell-based
T3 sequence (P0DMS8 whole entry): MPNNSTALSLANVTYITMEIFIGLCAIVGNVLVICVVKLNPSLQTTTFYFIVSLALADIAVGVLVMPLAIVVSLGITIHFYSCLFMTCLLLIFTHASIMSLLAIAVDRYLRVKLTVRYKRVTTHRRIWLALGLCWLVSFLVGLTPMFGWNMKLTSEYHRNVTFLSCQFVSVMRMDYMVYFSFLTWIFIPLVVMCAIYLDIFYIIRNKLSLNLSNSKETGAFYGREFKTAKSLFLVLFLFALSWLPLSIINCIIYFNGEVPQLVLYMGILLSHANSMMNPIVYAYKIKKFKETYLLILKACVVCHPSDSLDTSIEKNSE

[3] = target: T2, 5-hydroxytryptamine receptor 2A; assay: Displacement of [3H]ketanserin from human 5-HT2A receptor expressed in HEK293 cells at 10 uM incubated for 1 hr relative to control; type: cell-based
[4] = target: Adenosine receptor A2a (Homo sapiens) (UniProt P29274); assay: Displacement of […] from human A2AR expressed in HEK cells at 10 uM relative to control; type: cell-based
Sequence of Adenosine receptor A2a (Homo sapiens) (P29274 whole entry): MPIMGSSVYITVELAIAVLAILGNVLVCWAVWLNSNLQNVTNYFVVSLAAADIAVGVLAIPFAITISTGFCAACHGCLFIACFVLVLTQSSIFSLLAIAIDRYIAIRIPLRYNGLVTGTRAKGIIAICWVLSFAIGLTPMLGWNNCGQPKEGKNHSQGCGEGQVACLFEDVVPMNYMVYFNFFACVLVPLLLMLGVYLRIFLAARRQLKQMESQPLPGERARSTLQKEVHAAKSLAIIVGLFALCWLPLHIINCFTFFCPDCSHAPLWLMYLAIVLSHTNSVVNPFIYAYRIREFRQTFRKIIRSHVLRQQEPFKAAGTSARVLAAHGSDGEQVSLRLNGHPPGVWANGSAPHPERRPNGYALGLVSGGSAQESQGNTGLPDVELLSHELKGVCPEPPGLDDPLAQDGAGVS

[5] = target: T1, 5-hydroxytryptamine receptor 2C; assay: Displacement of [3H]-Mesulergine from human 5-HT2C expressed in Flp-In-T-REx-293 cells assessed as inhibition constant incubated for 1 hr; type: cell-based
Adenosine receptor A1 = target: T4, Adenosine receptor A1 (Homo sapiens, UniProt P30542); assay: Displacement of […] from human A1AR expressed in Flp-In-T-REx-293 cells assessed as inhibition constant; type: cell-based
T4 sequence (P30542 whole entry): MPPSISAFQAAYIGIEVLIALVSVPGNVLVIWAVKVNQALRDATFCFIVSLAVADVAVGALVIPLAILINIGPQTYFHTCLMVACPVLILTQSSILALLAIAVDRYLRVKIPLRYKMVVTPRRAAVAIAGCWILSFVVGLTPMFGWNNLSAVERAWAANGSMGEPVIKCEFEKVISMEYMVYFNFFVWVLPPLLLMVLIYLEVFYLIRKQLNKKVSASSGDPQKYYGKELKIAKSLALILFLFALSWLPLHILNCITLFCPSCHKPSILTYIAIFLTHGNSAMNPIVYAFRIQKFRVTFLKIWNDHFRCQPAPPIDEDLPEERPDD

[6] = target: T5, 5-hydroxytryptamine receptor 2B (Homo sapiens, UniProt P41595); assay: Displacement of [3H]-LSD from human 5-HT2B receptor expressed in HEK cells assessed as inhibition constant incubated for 1 hr; type: cell-based
T5 sequence (P41595 whole entry): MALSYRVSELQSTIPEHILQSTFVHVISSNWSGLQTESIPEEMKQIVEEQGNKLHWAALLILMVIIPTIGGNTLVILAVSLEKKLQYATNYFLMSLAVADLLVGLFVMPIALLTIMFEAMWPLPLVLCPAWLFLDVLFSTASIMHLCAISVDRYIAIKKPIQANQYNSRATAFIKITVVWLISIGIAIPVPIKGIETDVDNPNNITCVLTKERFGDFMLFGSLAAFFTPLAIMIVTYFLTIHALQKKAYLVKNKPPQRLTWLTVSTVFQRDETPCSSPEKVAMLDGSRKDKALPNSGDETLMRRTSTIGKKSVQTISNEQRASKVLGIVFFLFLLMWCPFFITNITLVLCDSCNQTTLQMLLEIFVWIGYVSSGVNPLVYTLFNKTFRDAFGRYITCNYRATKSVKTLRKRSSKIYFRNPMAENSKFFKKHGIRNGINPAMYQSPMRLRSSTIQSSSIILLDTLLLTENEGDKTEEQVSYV

[7] = target: T6, Adenosine receptor A3 (Homo sapiens) (UniProt P0DMS8); assay: Displacement of […] from human A3AR expressed in HEK cells at 10 uM relative to control; type: cell-based
T6 sequence (whole entry): T3 sequence (P0DMS8 whole entry)

[8] = target: T5, 5-hydroxytryptamine receptor 2B; assay: Binding affinity to 5HT2B receptor (unknown origin) assessed as inhibition constant
[9] = target: T5, 5-hydroxytryptamine receptor 2B; assay: Displacement of [3H]-LSD from human 5-HT2B receptor expressed in HEK cells at 10 uM incubated for 1 hr relative to control; type: cell-based
[10] = target: T7, 5-hydroxytryptamine receptor 2C (Homo sapiens) (UniProt P28335); assay: Displacement of [3H]-Mesulergine from human 5-HT2C expressed in Flp-In-T-REx-293 cells at 10 uM incubated for 1 hr relative to control; type: cell-based
T7 sequence (whole entry): T1 sequence (P28335 whole entry)

[11] = target: T8, Alpha-2B adrenergic receptor (Homo sapiens, UniProt P18089); assay: Binding affinity to alpha2B receptor (unknown origin) assessed as inhibition constant
T8 sequence (P18089 whole entry): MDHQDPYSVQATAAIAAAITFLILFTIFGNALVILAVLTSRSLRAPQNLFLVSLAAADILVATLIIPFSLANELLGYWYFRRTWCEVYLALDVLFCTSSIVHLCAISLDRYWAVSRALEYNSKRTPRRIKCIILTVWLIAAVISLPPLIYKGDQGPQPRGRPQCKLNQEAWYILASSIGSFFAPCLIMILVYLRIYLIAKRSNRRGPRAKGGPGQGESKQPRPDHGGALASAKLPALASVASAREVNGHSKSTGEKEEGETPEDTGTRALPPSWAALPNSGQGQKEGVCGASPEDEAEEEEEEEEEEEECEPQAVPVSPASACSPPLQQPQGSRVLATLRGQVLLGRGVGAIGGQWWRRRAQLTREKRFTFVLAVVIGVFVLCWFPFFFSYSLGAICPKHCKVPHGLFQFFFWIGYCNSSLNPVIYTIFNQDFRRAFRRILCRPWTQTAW

[12] = target: T7, 5-hydroxytryptamine receptor 2C (Homo sapiens); assay: Binding affinity to 5HT2C receptor (unknown origin) at 10 uM relative to control
[13] = target: 5-hydroxytryptamine receptor 1D (Homo sapiens, UniProt P28221); assay: Binding affinity to 5HT1D receptor (unknown origin) assessed as inhibition constant
Sequence of 5-hydroxytryptamine receptor 1D (P28221 whole entry): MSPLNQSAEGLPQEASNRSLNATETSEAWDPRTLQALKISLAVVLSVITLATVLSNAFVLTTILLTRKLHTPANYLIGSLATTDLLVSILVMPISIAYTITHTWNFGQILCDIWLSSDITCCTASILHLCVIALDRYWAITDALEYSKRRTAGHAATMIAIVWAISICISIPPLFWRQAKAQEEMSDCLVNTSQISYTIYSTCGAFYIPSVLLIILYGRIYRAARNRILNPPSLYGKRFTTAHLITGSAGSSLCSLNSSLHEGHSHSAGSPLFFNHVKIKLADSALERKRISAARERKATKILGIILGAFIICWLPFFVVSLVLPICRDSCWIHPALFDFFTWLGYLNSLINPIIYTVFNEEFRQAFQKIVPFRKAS

[14] = target: T2, 5-hydroxytryptamine receptor 2A; conditions: Flp-In-T-REx-293, time 1.0 hrs
[15] = target: T7, 5-hydroxytryptamine receptor 2C (Homo sapiens); conditions: Flp-In-T-REx-293, filed as antagonist, time 1.0 hrs

| Compound | Ki (Adenosine receptor A3) [nM] | Activity [4] [%] | Ki ([5]; read-out: Ki) [nM] | Ki (Adenosine receptor A1) [nM] | Activity [3] [%] | Activity [10] [%] | other results |
| --- | --- | --- | --- | --- | --- | --- | --- |
| O[C@H]1[C@H](n2cnc3c(NC(C4CCC4)C4CCC4)nc(Cl)nc32)[C@H]2C[C@@]2(CCl)[C@H]1O |  |  |  |  |  |  | Ki [1]: 908 nM; Activity [2]: 28% |
| OC[C@@]12C[C@@H]1[C@@H](n1cnc3c(NC(C4CCCCC4)C4CCCCC4)nc(Cl)nc31)[C@H](O)[C@@H]2O | 16600 | 7 |  |  |  |  | Activity ([3]; filed as antagonist): 47% |
| CSC[C@@]12C[C@@H]1[C@@H](n1cnc3c(NC(C4CC4)C4CC4)nc(I)nc31)[C@H](O)[C@@H]2O |  |  | 493 | 466 | 16 |  | Ki [6]: 522 nM; Activity ([7]; filed as agonist): 62%; Activity ([4]; filed as agonist): 40% |
| OC[C@@]12C[C@@H]1[C@@H](n1cnc3c(NC(C4CCC4)C4CCC4)ncnc31)[C@H](O)[C@@H]2O |  |  |  |  |  |  | Ki [8]: 186 nM; Ki [1]: 1020 nM; Activity [2]: 18% |
| OC[C@H]1O[C@@H](n2cnc3c(N[C@H](C4CCC4)C4CC4)nc(I)nc32)[C@H](O)[C@@H]1O |  |  |  | 21.3 | 6 | -1 | Activity ([9]; filed as antagonist): 44%; Activity [7]: 34%; Activity ([4]; filed as agonist): 72% |
| CCCCSC[C@@]12C[C@@H]1[C@@H](n1cnc3c(NC(C4CCCC4)C4CCCC4)nc(Cl)nc31)[C@H](O)[C@@H]2O |  | 8 |  |  | 22 | 27 | Ki [6]: 549 nM |
| OC[C@@]12C[C@@H]1[C@@H](n1cnc3c(NC(C4CC4)C4CC4)nc(I)nc31)[C@H](O)[C@@H]2O | 7810 |  | 249 | 13.4 | 35 |  | Activity ([4]; filed as agonist): 63% |
| O[C@H]1[C@H](n2cnc3c(NC(C4CCC4)C4CCC4)ncnc32)[C@H]2C[C@@]2(CCl)[C@H]1O |  |  |  |  |  |  | Ki [8]: 1090 nM; Ki [1]: 1230 nM; Activity [2]: 11% |
| CSC[C@@]12C[C@@H]1[C@@H](n1cnc3c(NC(C4CCCC4)C4CCCC4)nc(Cl)nc31)[C@H](O)[C@@H]2O | 5270 | -12 | 481 |  |  |  | Activity ([3]; filed as antagonist): 47%; Ki [11]: 1700 nM |
| CCOC(=O)[C@@]12C[C@@H]1[C@@H](n1cnc3c(NC(C4CCC4)C4CCC4)nc(Cl)nc31)[C@H](O)[C@@H]2O |  |  |  |  |  |  | Ki [8]: 136 nM; Ki [1]: 351 nM; Activity [2]: 35% |
| Nc1nc(I)nc2c1ncn2[C@H]1[C@H](O)[C@H](O)[C@]2(CCl)C[C@H]12 | 390 |  |  | 147 | 0 | 12 | Activity [9]: 11% |
| CC(C)[C@@H](Nc1nc(I)nc2c1ncn2[C@H]1[C@H](O)[C@H](O)[C@]2(CO)C[C@H]12)C1CC1 | 11700 |  | 904 | 30.7 | 7 |  | Ki [6]: 81.9 nM; Activity ([4]; filed as agonist): 60% |
| CNC(=O)[C@]12C[C@@H]1[C@@H](n1cnc3c(NC4CCCC4)nc(Cl)nc31)[C@H](O)[C@@H]2O |  |  |  |  |  |  | Ki [8]: 78.2 nM; Activity ([12]; filed as antagonist): 44%; Activity [2]: 0% |
| O[C@H]1[C@H](n2cnc3c(NC(C4CCCCC4)C4CCCCC4)nc(Cl)nc32)[C@H]2C[C@@]2(CF)[C@H]1O | 5040 | -27 | 163 |  |  |  | Ki [13]: 5500 nM; Ki [11]: 3600 nM |
| CSC[C@@]12C[C@@H]1[C@@H](n1cnc3c(N)nc(I)nc31)[C@H](O)[C@@H]2O | 92.5 |  |  | 1350 | 0 | 12 | Activity [9]: 12% |
| Ic1nc(N[C@H](C2CCC2)C2CC2)c2nc[nH]c2n1 |  |  |  | 648 | -10 | 5 | Ki [6]: 313 nM |
| O[C@@H]1[C@H](O)[C@@H]2C[C@@H]2[C@H]1n1cnc2c(NC(C3CCCC3)C3CCCC3)nc(Cl)nc21 |  | 24 |  |  | 22 |  |  |
| COCCN(CCOC)C(=O)[C@]12C[C@H]1[C@H](n1cnc3c(NC(C4CC4)C4CC4)nc(Cl)nc31)[C@@H](O)[C@H]2O (single isomer, unassigned) |  | 34 |  |  | 0 | 38 | Activity [7]: 30% |
| OC[C@@]12C[C@@H]1[C@@H](n1cnc3c(N[C@H](C4CCC4)C4CC4)nc(I)nc31)[C@H](O)[C@@H]2O |  |  | 670 | 42.7 | 29 |  | pKb [14]: < 5; Ki ([5]; read-out: pKi (converted)): 603 nM; pKb [15]: 6.54; Activity [7]: 34%; Activity ([4]; filed as agonist): 50% |
| O[C@H]1[C@H](n2cnc3c(NC(C4CCCCC4)C4CCCCC4)nc(Cl)nc32)[C@H]2C[C@@]2(CCl)[C@H]1O | 9320 | -9 | 73.5 |  |  |  |  |
| COCCN(CCOC)C(=O)[C@]12C[C@H]1[C@H](n1cnc3c(N)nc(Cl)nc31)[C@@H](O)[C@H]2O (single isomer, unassigned) |  |  |  |  | 3 | 12 | Activity [9]: 36%; Activity ([7]; filed as agonist): 51% |
| O[C@@H]1[C@H](O)[C@@H]2C[C@@H]2[C@H]1n1ccc2c(NC(C3CC3)C3CC3)nc(I)nc21 |  |  |  |  |  |  | Ki [8]: 1300 nM; pKi [8]: 5.88; Activity [12]: 30%; Activity [2]: 3% |
| CCOC(=O)[C@@]12C[C@@H]1[C@@H](n1cnc3c(NC(C4CCCC4)C4CCCC4)nc(Cl)nc31)[C@H](O)[C@@H]2O | 9720 | -22 | 139 |  |  |  | Activity ([3]; filed as antagonist): 42%; Ki [6]: 239 nM |
| NC[C@H]1O[C@@H](n2cnc3c(N[C@H](C4CCC4)C4CC4)nc(I)nc32)[C@H](O)[C@@H]1O |  | 39 |  | 147 | 9 | -1 | Ki [6]: 178 nM; Activity ([7]; filed as agonist): 56% |
| OC[C@@]12C[C@@H]1[C@@H](n1cnc3c(NC(C4CCC4)C4CCC4)nc(Cl)nc31)[C@H](O)[C@@H]2O |  |  |  |  |  |  | Ki [1]: 368 nM; Activity [2]: 8% |
| CSC[C@@]12C[C@@H]1[C@@H](n1cnc3c(NC(C4CC4)C4CC4)nc(Cl)nc31)[C@H](O)[C@@H]2O | 932 |  | 772 | 63.2 | 19 |  |  |
| O[C@H]1[C@H](n2cnc3c(NC(C4CC4)C4CC4)nc(Cl)nc32)[C@H]2C[C@@]2(CF)[C@H]1O | 3700 |  |  | 5.95 | 14 |  | Activity ([10]; filed as antagonist): 47%; Activity ([4]; filed as agonist): 55% |
| Nc1nc(I)nc2c1ncn2[C@H]1[C@H](O)[C@H](O)[C@]2(CO)C[C@H]12 |  |  |  |  | -27 | -38 | Activity [9]: -3% |
